Assays:
HER2 kinase = molecular target: T1, HER2 kinase (Homo sapiens, UniProt P04626); experiment: HER2 kinase assay (ULight/PT66 TR-FRET); assay type: biochemical
T1 construct: purchased Carna Biosciences 08-016
Method: (§1) Preparation of compound solution: The assay compound was dissolved in DMSO to form a 10 mM stock solution. Prior to use, the compound was diluted to 0.25 mM in DMSO (100 times the final concentration of the diluent) and then subjected to a 3-fold concentration gradient dilution to obtain a total of 11 concentrations. The solution was diluted with buffer to a diluent with 4× the final concentration when the compound was added.
(§2) HER2 kinase assay: buffer was prepared, and 40 nM 4×Her2 kinase solution, 40 μM 4×ATP solution, and 400 nM 4×ULight™-labeled Ploy GT Peptide substrate solution were prepared using the buffer. After the preparation was completed, the enzyme was mixed with different concentrations of compounds pre-prepared by dilution, and the mixture was left to stand at room temperature for 5 min. Each concentration was performed in duplicate. The corresponding substrate and ATP were added and the mixture was reacted at room temperature for 120 minutes (with negative and positive controls). After completion of the reaction, PT66 detection antibody was added. The mixture was incubated at room temperature for 60 minutes, and then detected by Envision.
(§3) Compound concentrations and corresponding inhibition rates were input into GraphPad Prism for processing to calculate IC50 values.

EGFR^WT kinase = EGFR^WT kinase (Homo sapiens, UniProt P00533); experiment: EGFR^WT kinase assay (ULight/PT66 TR-FRET); assay type: biochemical
Method: as §1
as §2, with “EGFR^WT kinase assay:” for “HER2 kinase assay:”, “prepared, and 3.48 nM 4×EGFR” for “prepared, and 40 nM 4×Her2”, “3.48 nM 4×EGFR kinase solution,” for “40 nM 4×Her2 kinase solution,”, “kinase solution, 600 μM 4×ATP” for “kinase solution, 40 μM 4×ATP”, “nM 4×ULight™-labeled JAK-1 (Try1023) Peptide substrate” for “nM 4×ULight™-labeled Ploy GT Peptide substrate”
as §3

[1] = molecular target: Ba/F3 HER2 A775_G776insYVMA cells (Homo sapiens, UniProt P04626, DUP772-775, cells depend on it); experiment: Inhibition of cell proliferation, CTG method, Ba/F3 HER2 A775_G776insYVMA; assay type: cell-based; conditions: 72 hours, read-out: Ba/F3 HER2 A775-G776insYVMA IC50
From the text: The present application examined the in vitro anti-proliferative activity of the compounds of the present disclosure against in vitro cultured BT474, NCI-N87, Ba/F3-EGFR-VIII and Ba/F3 HER2 A775_G776insYVMA and Ba/F3 EGFR D770_N771insSVD cell lines by CTG method.
Cell lines: BT474 (from the cell bank of Chinese Academy of Sciences), NCI-N87 (from ATCC), Ba/F3-EGFR-VIII, Ba/F3 HER2 A775_G776insYVMA and Ba/F3 EGFR D770_N771insSVD (all from KYinno Biotechnology (Beijing) Co., Ltd.); all of the above cells were cultured with RPMI1640 medium containing 10% fetal bovine serum, 100 U/mL penicillin, and 100 μg/mL streptomycin in the culture process.
1. The assay compound was dissolved with DMSO to form a stock solution and a gradient dilution was performed, followed by dilution with the corresponding medium to obtain a solution with 5-fold working concentration.
2. Cells in logarithmic growth phase were adjusted to specific cell densities by dilution with culture medium, and 80 μL of cell suspension was added to a 96-well plate, such that plating densities of cells of BT474, NCI-N87, Ba/F3-EGFR-VIII, Ba/F3 HER2 A775_G776insYVMA and Ba/F3 EGFR D770_N771insSVD were all 3000 cells/well. The cells of Ba/F3-EGFR-VIII, Ba/F3 HER2 A775_G776insYVMA and Ba/F3 EGFR D770_N771insSVD were used directly in the next step (treatment with compound), whereas the BT474 and NCI-N87 needed to be cultured overnight in a 37° C., 5% carbon dioxide gas incubator to adhere to the wall, and then treated with compounds.
3. […] The highest concentration of the assayed compound was 10 μM, 4-fold serial dilution, a total of 9 concentrations, and duplicate wells. A control group without compound was also set up.
4. The cells were cultured for another 72 hours, and then cell viability was detected by CTG assay kit. Signal values were read with a multifunctional plate reader (Perkin Elmer). GraphPad Prism software was used to create a dose-response curve and IC50 was calculated.

EGFR^WT kinase, sequence (P00533 25-1210): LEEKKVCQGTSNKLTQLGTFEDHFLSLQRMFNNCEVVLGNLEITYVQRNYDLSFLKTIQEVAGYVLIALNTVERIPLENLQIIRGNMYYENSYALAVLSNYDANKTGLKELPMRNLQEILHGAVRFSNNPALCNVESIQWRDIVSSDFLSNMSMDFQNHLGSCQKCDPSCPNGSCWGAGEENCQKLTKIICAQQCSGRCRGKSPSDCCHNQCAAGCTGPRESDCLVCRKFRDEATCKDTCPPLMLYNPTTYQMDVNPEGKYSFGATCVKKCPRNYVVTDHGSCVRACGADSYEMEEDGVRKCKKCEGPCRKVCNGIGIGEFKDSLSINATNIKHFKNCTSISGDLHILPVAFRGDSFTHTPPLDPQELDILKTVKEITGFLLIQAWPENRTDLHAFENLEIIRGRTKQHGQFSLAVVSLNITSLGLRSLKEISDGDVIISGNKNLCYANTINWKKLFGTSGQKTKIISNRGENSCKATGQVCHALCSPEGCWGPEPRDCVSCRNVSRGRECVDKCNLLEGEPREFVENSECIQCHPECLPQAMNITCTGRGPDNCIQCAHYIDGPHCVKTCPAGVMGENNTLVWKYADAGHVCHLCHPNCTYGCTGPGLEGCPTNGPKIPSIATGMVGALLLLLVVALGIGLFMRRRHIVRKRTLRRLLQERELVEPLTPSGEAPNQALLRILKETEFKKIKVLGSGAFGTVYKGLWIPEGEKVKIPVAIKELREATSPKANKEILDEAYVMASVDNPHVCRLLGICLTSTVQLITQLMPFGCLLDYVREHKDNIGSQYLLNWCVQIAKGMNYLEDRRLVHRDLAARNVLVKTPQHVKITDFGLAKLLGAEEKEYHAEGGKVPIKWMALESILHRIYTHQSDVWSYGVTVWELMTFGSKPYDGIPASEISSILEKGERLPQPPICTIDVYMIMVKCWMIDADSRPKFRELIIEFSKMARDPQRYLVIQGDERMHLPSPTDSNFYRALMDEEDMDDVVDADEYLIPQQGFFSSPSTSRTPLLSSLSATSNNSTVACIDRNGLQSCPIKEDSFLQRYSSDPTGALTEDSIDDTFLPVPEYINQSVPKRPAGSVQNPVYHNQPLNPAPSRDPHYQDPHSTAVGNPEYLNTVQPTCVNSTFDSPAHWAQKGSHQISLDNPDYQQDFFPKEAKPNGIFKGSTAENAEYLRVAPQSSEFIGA
T1 sequence (P04626 23-1255): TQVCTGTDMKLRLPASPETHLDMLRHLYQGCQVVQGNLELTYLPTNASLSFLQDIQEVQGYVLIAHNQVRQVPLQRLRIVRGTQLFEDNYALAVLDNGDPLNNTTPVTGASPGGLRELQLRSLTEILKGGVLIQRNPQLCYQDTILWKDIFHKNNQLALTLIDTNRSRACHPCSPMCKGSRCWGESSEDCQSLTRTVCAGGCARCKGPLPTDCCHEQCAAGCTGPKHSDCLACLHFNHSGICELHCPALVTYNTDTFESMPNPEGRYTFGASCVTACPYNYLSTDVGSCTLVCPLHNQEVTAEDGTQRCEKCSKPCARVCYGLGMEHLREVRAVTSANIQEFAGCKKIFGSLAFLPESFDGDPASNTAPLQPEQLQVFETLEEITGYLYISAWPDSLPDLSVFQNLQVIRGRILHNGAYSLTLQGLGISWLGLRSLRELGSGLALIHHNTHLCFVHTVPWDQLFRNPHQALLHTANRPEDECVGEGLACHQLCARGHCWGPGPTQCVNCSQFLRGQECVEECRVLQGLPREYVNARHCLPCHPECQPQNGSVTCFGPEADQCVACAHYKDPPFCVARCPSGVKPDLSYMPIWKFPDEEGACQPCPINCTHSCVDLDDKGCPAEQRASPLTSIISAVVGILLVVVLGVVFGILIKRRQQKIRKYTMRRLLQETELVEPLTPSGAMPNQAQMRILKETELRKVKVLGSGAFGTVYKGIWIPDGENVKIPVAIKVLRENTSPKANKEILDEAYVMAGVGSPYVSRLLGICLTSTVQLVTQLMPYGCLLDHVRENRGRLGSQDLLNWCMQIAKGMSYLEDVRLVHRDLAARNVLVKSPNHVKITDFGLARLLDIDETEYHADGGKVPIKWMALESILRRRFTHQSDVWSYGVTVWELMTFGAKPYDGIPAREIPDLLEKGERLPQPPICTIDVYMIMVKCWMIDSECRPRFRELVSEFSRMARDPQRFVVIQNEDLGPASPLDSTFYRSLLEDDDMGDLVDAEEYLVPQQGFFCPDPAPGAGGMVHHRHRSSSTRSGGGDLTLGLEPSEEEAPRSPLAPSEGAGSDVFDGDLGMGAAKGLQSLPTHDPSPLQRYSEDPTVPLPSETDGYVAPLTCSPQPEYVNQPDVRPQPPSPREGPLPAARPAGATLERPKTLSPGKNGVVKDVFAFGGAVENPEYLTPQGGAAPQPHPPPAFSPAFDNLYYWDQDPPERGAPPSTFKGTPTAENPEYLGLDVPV
Ba/F3 HER2 A775_G776insYVMA cells, sequence (P04626 with tags, fused parts or gaps DUP772-775): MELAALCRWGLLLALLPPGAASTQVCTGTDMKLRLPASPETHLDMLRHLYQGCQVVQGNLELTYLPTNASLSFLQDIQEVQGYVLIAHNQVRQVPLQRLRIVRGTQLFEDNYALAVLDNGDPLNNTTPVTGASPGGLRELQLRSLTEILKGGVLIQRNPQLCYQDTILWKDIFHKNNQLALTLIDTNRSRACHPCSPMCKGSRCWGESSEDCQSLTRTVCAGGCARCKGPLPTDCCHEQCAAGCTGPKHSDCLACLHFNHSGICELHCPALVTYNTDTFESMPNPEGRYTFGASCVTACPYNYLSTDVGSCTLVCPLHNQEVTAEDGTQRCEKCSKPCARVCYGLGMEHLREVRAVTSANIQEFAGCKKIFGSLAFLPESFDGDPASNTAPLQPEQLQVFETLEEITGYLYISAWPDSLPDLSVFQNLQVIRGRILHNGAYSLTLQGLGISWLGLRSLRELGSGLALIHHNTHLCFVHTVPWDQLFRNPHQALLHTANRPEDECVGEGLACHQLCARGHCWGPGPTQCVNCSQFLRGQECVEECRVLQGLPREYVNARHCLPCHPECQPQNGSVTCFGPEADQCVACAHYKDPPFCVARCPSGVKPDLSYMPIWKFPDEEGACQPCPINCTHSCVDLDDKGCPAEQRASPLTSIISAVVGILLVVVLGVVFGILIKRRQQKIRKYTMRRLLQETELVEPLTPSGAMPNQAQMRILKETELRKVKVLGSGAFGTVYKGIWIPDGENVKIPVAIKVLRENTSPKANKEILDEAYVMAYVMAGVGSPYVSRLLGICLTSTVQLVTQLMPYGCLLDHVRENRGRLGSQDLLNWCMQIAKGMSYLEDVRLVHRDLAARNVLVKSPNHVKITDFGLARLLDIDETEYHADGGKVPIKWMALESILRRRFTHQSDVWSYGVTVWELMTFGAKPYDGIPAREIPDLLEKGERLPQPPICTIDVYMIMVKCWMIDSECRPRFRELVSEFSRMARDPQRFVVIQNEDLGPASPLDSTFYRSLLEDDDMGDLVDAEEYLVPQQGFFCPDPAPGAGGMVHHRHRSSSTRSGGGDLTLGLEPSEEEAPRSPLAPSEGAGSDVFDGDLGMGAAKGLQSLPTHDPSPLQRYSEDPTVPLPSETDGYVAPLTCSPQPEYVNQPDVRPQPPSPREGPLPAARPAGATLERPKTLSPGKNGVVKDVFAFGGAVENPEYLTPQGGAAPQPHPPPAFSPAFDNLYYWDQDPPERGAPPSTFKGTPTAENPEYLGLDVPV

IC50 (HER2 kinase) | IC50 (EGFR^WT kinase) | GI50 [1] | SMILES
< 0.01 µM | < 0.01 µM | 0.001 to 0.005 µM | COc1c(NC(=O)/C=C/[C@H]2CCCN2C(C)C)ccc2ncnc(Nc3ccc(OCc4cccc(F)c4)c(Cl)c3)c12 [Example 18, (R,E)-N-(4-((3-chloro-4-(3-fluorobenzyloxy)phenyl)amino)-5-methoxyquinazolin-6-yl)-3-(1-isopropylpyrrolidine-2-yl)acrylamide]
< 0.01 µM | 0.01 to 0.1 µM | 0.001 to 0.005 µM | CN1CCC[C@@H]1/C=C/C(=O)Nc1ccc2ncnc(Nc3ccc(OCc4ccccn4)c(Cl)c3)c2c1OC1CC1 [Example 37, (R,E)-N-(4-((3-chloro-4-(pyridin-2-ylmethoxy)phenyl)amino)-5-cyclopropoxyquinazolin-6-yl)-3-(1-methylpyrrolidin-2-yl)acrylamide]
< 0.01 µM | < 0.01 µM | 0.001 to 0.005 µM | [2H]C([2H])([2H])Oc1c(NC(=O)/C=C/[C@H]2CCCN2CC)ccc2ncnc(Nc3ccc(OCc4ccccn4)c(Cl)c3)c12 [Example 34, (R,E)-N-(4-((3-chloro-4-(pyridin-2-ylmethoxy)phenyl)amino)-5-(methoxy-d3)quinazolin-6-yl)-3-(1-ethylpyrrolidin-2-yl)acrylamide]
< 0.01 µM | 0.01 to 0.1 µM | 0.001 to 0.005 µM | [2H]C([2H])([2H])Oc1c(NC(=O)/C=C/[C@H]2CCCN2C(C)C)ccc2ncnc(Nc3ccc(OCc4ccccn4)c(Cl)c3)c12 [Example 35, (R,E)-N-(4-((3-chloro-4-(pyridin-2-ylmethoxy)phenyl)amino)-5-(methoxy-d3)quinazolin-6-yl)-3-(1-isopropylpyrrolidin-2-yl)acrylamide]
< 0.01 µM | < 0.01 µM | 0.001 to 0.005 µM | CN1CCC[C@@H]1/C=C/C(=O)Nc1ccc2ncnc(Nc3ccc(OCc4ccccn4)c(Cl)c3)c2c1OCC1CC1 [Example 38, (R,E)-N-(4-((3-chloro-4-(pyridin-2-ylmethoxy)phenyl)amino)-5-(cyclopropylmethoxy)quinazolin-6-yl)-3-(1-methylpyrrolidone-2-yl)acrylamide]
< 0.01 µM | < 0.01 µM | 0.001 to 0.005 µM | CCOc1c(NC(=O)/C=C/[C@H]2CCCN2CC)ccc2ncnc(Nc3ccc(OCc4ccccn4)c(Cl)c3)c12 [Example 20, (R,E)-N-(4-((3-chloro-4-(pyridin-2-ylmethoxy)phenyl)amino)-5-ethoxyquinazolin-6-yl)-3-(1-ethylpyrrolidin-2-yl)acrylamide]
< 0.01 µM | 0.1 to 1 µM | 0.001 to 0.005 µM | COCCN1CCC[C@@H]1/C=C/C(=O)Nc1ccc2ncnc(Nc3ccc(OCc4ccccn4)c(Cl)c3)c2c1OC [Example 25, (R,E)-N-(4-((3-chloro-4-(pyridin-2-ylmethoxy)phenyl)amino)-5-methoxyquinazolin-6-yl)-3-(1-(2-methoxyethyl)pyrrolidin-2-yl)acrylamide]
< 0.01 µM | < 0.01 µM | 0.001 to 0.005 µM | CN1CCC[C@@H]1/C=C/C(=O)Nc1ccc2ncnc(Nc3ccc(OCc4ccccn4)c(Cl)c3)c2c1OCCF [Example 7, (R,E)-N-(4-((3-chloro-4-(pyridin-2-ylmethoxy)phenyl)amino)-5-(2-fluoroethoxy)quinazolin-6-yl)-3-(1-methylpyrrolidin-2-yl)acrylamide]
< 0.01 µM | 0.1 to 1 µM | 0.001 to 0.005 µM | COCCCNc1c(NC(=O)/C=C/[C@H]2CCCN2C)ccc2ncnc(Nc3ccc(OCc4ccccn4)c(Cl)c3)c12 [Example 32, (R,E)-N-(4-((3-chloro-4-(pyridin-2-ylmethoxy)phenyl)amino)-5-((3-methoxypropyl)amino)quinazolin-6-yl)-3-(1-methylpyrrolidin-2-yl)acrylamide]

SMILES | IC50 (HER2 kinase) | IC50 (EGFR^WT kinase) | GI50 [1]
COCCCCOc1c(NC(=O)/C=C/[C@H]2CCCN2C)ccc2ncnc(Nc3ccc(OCc4ccccn4)c(Cl)c3)c12 [Example 23, (R,E)-N-(4-((3-chloro-4-(pyridin-2-ylmethoxy)phenyl)amino)-5-(4-methoxybutoxy)quinazolin-6-yl)-3-(1-methylpyrrolidin-2-yl)acrylamide] | < 0.01 µM | 0.1 to 1 µM | 0.001 to 0.005 µM
CN1CCC[C@@H]1/C=C/C(=O)Nc1ccc2ncnc(Nc3ccc(OCc4ccccn4)c(Cl)c3)c2c1OCCC(C)(C)O [Example 16, (R,E)-N-(4-((3-chloro-4-(pyridin-2-ylmethoxy)phenyl)amino)-5-(3-hydroxy-3-methylbutoxy)quinazolin-6-yl)-3-(1-methylpyrrolidin-2-yl)acrylamide] | < 0.01 µM | < 0.01 µM | 0.001 to 0.005 µM
CC(C)COc1c(NC(=O)/C=C/[C@H]2CCCN2C)ccc2ncnc(Nc3ccc(OCc4ccccn4)c(Cl)c3)c12 [Example 14, (R,E)-N-(4-((3-chloro-4-(pyridin-2-ylmethoxy)phenyl)amino)-5-isobutoxyquinazolin-6-yl)-3-(1-methylpyrrolidin-2-yl)acrylamide] | < 0.01 µM | < 0.01 µM | 0.001 to 0.005 µM
